According to PubChem BioAssay AID308 (DTP/NCI, 2004):
Toxic doses and inconclusive results are not listed.

System: BDF1 mice, L1210 6-MP/6-TG resistant leukemia ip, survival T/C
Experiment: NCI In Vivo Anticancer Drug Screen. Data for tumor model L1210 Leukemia resistant to 6-MP and 6-Thioguanine; NSC 755, NSC 752 (intraperitoneal) in B6D2F1 (BDF1) mice
Conditions: endpoint: mean survival time, higher = longer survival
Description: The antitumor activity of compounds was measured in mice bearing transplantable tumors. Survival or tumor size were measured and the results are expressed as the measurement made in the treated group (T) divided by the measurement made in the vehicle treated control group (C). The tumor model used in this assay is L1210 Leukemia resistant to 6-MP and 6-Thioguanine; NSC 755, NSC 752 (intraperitoneal) in B6D2F1 (BDF1) mice

[1] = dose: 3.75 mg/kg/injection, schedule: Q01DX Z (ip), vehicle: carboxymethylcellulose (CMC)
[2] = dose: 5.0 mg/kg/injection, schedule: Q01DX Z (ip), vehicle: carboxymethylcellulose (CMC)
[3] = dose: 7.5 mg/kg/injection, schedule: Q01DX Z (ip), vehicle: carboxymethylcellulose (CMC)
[4] = dose: 25.0 mg/kg/injection, schedule: Q01DX Z (ip), vehicle: carboxymethylcellulose (CMC)
[5] = dose: 100.0 mg/kg/injection, schedule: Q01DX Z (ip), vehicle: carboxymethylcellulose (CMC)

## C=CCSc1ncnc2c1ncn2C1OC(CO)C(O)C1O (stereo not drawn)
dose: 5.0 mg/kg/injection, schedule: Q01DX015 (ip), vehicle: saline
  T/C: 112 % of control
dose: 10.0 mg/kg/injection, schedule: Q01DX015 (ip), vehicle: saline
  T/C: 102 % of control
dose: 20.0 mg/kg/injection, schedule: Q01DX015 (ip), vehicle: saline
  T/C: 100 % of control
dose: 40.0 mg/kg/injection, schedule: Q01DX015 (ip), vehicle: saline
  T/C: 100 % of control
dose: 50.0 mg/kg/injection, schedule: Q01DX015 (ip), vehicle: saline
  T/C: 105 % of control
dose: 100.0 mg/kg/injection, schedule: Q01DX015 (ip), vehicle: saline
  T/C: 94 % of control
dose: 200.0 mg/kg/injection, schedule: Q01DX015 (ip), vehicle: saline
  T/C: 90 % of control

## CCC1(Sc2ncnc3nc[nH]c23)C(=O)NC(=O)NC1=O
dose: 6.25 mg/kg/injection, schedule: Q01DX010 (ip), vehicle: alkali diluted with saline
  T/C: 104 % of control
dose: 12.5 mg/kg/injection, schedule: Q01DX010 (ip), vehicle: alkali diluted with saline
  T/C: 96 % of control
dose: 25.0 mg/kg/injection, schedule: Q01DX010 (ip), vehicle: alkali diluted with saline
  T/C: 107 % of control
dose: 50.0 mg/kg/injection, schedule: Q01DX010 (ip), vehicle: alkali diluted with saline
  T/C: 102 % of control
dose: 100.0 mg/kg/injection, schedule: Q01DX010 (ip), vehicle: alkali diluted with saline
  T/C: 104 % of control
dose: 200.0 mg/kg/injection, schedule: Q01DX010 (ip), vehicle: alkali diluted with saline
  T/C: 107 % of control

## Nc1nc(=S)c2ncn(C3OC(CO)C(O)C3O)c2[nH]1 (stereo not drawn)
[1]
  T/C: 96 % of control
[2]
  T/C: 93 % of control
[3]
  T/C: 107 % of control
dose: 10.0 mg/kg/injection, schedule: Q01DX Z (ip), vehicle: carboxymethylcellulose (CMC)
  T/C: 93 % of control

## NC(=O)N(CCCl)N=O
dose: 0.47 mg/kg/injection, schedule: Q01DX Z (ip), vehicle: saline
  T/C: 220 % of control
dose: 0.93 mg/kg/injection, schedule: Q01DX Z (ip), vehicle: saline
  T/C: 265 % of control
dose: 1.25 mg/kg/injection, schedule: Q01DX Z (ip), vehicle: saline
  T/C: 236 % of control
dose: 1.87 mg/kg/injection, schedule: Q01DX Z (ip), vehicle: saline
  T/C: 158 % of control
dose: 5.0 mg/kg/injection, schedule: Q01DX Z (ip), vehicle: saline
  T/C: 92 % of control

## NC(Cc1ccc(N(CCCl)CCCl)cc1)C(=O)O (stereo not drawn)
dose: 0.5 mg/kg/injection, schedule: Q01DX Z (ip), vehicle: carboxymethylcellulose (CMC)
  T/C: 163 % of control
dose: 0.75 mg/kg/injection, schedule: Q01DX Z (ip), vehicle: carboxymethylcellulose (CMC)
  T/C: 155 % of control
dose: 1.0 mg/kg/injection, schedule: Q01DX Z (ip), vehicle: carboxymethylcellulose (CMC)
  T/C: 188 % of control
dose: 2.5 mg/kg/injection, schedule: Q01DX Z (ip), vehicle: carboxymethylcellulose (CMC)
  T/C: 195 % of control
[1]
  T/C: 195 % of control
[2]
  T/C: 155 % of control
[3]
  T/C: 119 % of control

## O=c1[nH]c(=O)n(C2CC(O)C(CO)O2)cc1I (stereo not drawn)
dose: 20.0 mg/kg/injection, schedule: Q01DX Z (ip), vehicle: carboxymethylcellulose (CMC)
  T/C: 108 % of control
[4]
  T/C: 121 % of control
dose: 30.0 mg/kg/injection, schedule: Q01DX Z (ip), vehicle: carboxymethylcellulose (CMC)
  T/C: 95 % of control
dose: 40.0 mg/kg/injection, schedule: Q01DX Z (ip), vehicle: carboxymethylcellulose (CMC)
  T/C: 87 % of control
dose: 60.0 mg/kg/injection, schedule: Q01DX Z (ip), vehicle: carboxymethylcellulose (CMC)
  T/C: 108 % of control
dose: 75.0 mg/kg/injection, schedule: Q01DX Z (ip), vehicle: carboxymethylcellulose (CMC)
  T/C: 182 % of control
[5]
  T/C: 154 % of control
dose: 125.0 mg/kg/injection, schedule: Q01DX Z (ip), vehicle: carboxymethylcellulose (CMC)
  T/C: 115 % of control
dose: 250.0 mg/kg/injection, schedule: Q01DX Z (ip), vehicle: carboxymethylcellulose (CMC)
  T/C: 100 % of control
dose: 375.0 mg/kg/injection, schedule: Q01DX Z (ip), vehicle: carboxymethylcellulose (CMC)
  T/C: 93 % of control

## CC(=O)OCC1OC(n2cnc3c(=S)nc[nH]c32)C(OC(C)=O)C1OC(C)=O (stereo not drawn)
[4]
  T/C: 104 % of control
dose: 50.0 mg/kg/injection, schedule: Q01DX Z (ip), vehicle: carboxymethylcellulose (CMC)
  T/C: 111 % of control
[5]
  T/C: 108 % of control
dose: 200.0 mg/kg/injection, schedule: Q01DX Z (ip), vehicle: carboxymethylcellulose (CMC)
  T/C: 98 % of control
